Measurements from the supplement of paper PMC11208160.

Assay: recombinant barcode read abundance after kanamycin selection (control-corrected) (log10(CPM+1)); higher = more efficient recombination; sequences stand for … in AGTGCAGAGAAAATCGGCCAGTTTTCTCTGCCTGCAGTCCGCATGCCGT…AGATTTATGCAGCGGACTGCCTTTCTCCCAAAGTGATAAACCGGACAGTATCATGGACCGGTTTTCCCGGTAATCCGTATTTGCAAGGTTGGTTTCACT; site = the 11-nt target
How it was run: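 Duplicate cultures were plated either on chloramphenicol/ampicillin LB agar, serving as control, or on chloramphenicol/ampicillin/kanamycin with 0.1 mM IPTG. These came from a pooled E. coli library co-electroporated with a donor plasmid, each member pairing a target with an IS621 bridge RNA target-binding loop. Recombination efficiency equals averaged, control-corrected counts per million of recombinant-junction barcodes. It is listed as log10(CPM+1).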
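Further: IS621 recombinase and bridge RNA in Escherichia coli cells.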

Sequence | recombinant barcode read abundance (log10)
CCACAGTCTTGGGTTCTAACCTGTTGCCT (site CCACGGTCTAG) | 0.169
CCACAGTCTTGGGTTCTAACCTGTTGCCT (site CCACTGTCTAG) | 0.0628
CCACGAGCTTGGGTTCTAACCTGTTGCGG (site CCACGAGCTCC) | 1.4
CCACGAGCTTGGGTTCTAACCTGTTGCGG (site CGACGAGCTCC) | 0.148
CCACGGCCTTGGGTTCTAACCTGTTGCAT (site CCACGGCCTAT) | 1.21
CCACGGCCTTGGGTTCTAACCTGTTGCAT (site CCTCGGCCTAT) | 0
CCACTACCTTGGGTTCTAACCTGTTGCCT (site CCACTACCTAG) | 0.253
CCACTACCTTGGGTTCTAACCTGTTGCCT (site CCACTCCCTAG) | 0.0236
CCACTACCTTGGGTTCTAACCTGTTGCCT (site CCACTGCCTAG) | 0.0373
CCACTACCTTGGGTTCTAACCTGTTGCCT (site CCACTTCCTAG) | 0.0936
CCACTGTCTTGGGTTCTAACCTGTTGCCT (site CCACAGTCTAG) | 0.806
CCACTGTCTTGGGTTCTAACCTGTTGCCT (site CCACCGTCTAG) | 0.0386
CCACTGTCTTGGGTTCTAACCTGTTGCCT (site CCACGGTCTAG) | 0.0729
CCACTGTCTTGGGTTCTAACCTGTTGCCT (site CCACTGTCTAG) | 0.632
CCAGAGTCTTGGGTTCTAACCTGTTGCCA (site CCAGAGTCTCG) | 0
CCAGAGTCTTGGGTTCTAACCTGTTGCCA (site CCAGAGTCTTG) | 1.22
CCAGCAGCTTGGGTTCTAACCTGTTGCCT (site CCAGAAGCTAG) | 0.0762
CCAGCAGCTTGGGTTCTAACCTGTTGCCT (site CCAGCAGCTAG) | 0.675

Sequence | recombinant barcode read abundance (log10)
CCAGCAGCTTGGGTTCTAACCTGTTGCCT (site CCAGGAGCTAG) | 0.0858
CCAGCAGCTTGGGTTCTAACCTGTTGCCT (site CCAGTAGCTAG) | 0.76
CCAGGTCCTTGGGTTCTAACCTGTTGCGT (site CCAGGTCCTAC) | 2.45
CCAGGTCCTTGGGTTCTAACCTGTTGCGT (site CCAGGTCCTAT) | 1.81
CCATACGCTTGGGTTCTAACCTGTTGCCT (site CCATACGCTAG) | 0.178
CCATACGCTTGGGTTCTAACCTGTTGCCT (site CGAGACGCTAG) | 0.189
CCATCAACTTGGGTTCTAACCTGTTGCCT (site CCATCAACTAG) | 0.0699
CCATCAACTTGGGTTCTAACCTGTTGCCT (site CCATGAACTTG) | 0.0637
CCATCTCCTTGGGTTCTAACCTGTTGCCT (site ACATCTCCTAG) | 0.0982
CCATCTCCTTGGGTTCTAACCTGTTGCCT (site CCATCTCCTAG) | 0.492
CCATCTCCTTGGGTTCTAACCTGTTGCCT (site GCATCTCCTAG) | 0.127
CCATCTCCTTGGGTTCTAACCTGTTGCCT (site TCATCTCCTAG) | 0.0439
CCGAAGCCTTGGGTTCTAACCTGTTGCCT (site CCGAAGCCTAG) | 1.01
CCGAAGCCTTGGGTTCTAACCTGTTGCCT (site CCGCAGCCTAG) | 0.256
CCGAAGCCTTGGGTTCTAACCTGTTGCCT (site CCGGAGCCTAG) | 0.144
CCGAAGCCTTGGGTTCTAACCTGTTGCCT (site CCGTAGCCTAG) | 0.143
CCGAATGCTTGGGTTCTAACCTGTTGCCT (site CCGAATGCTAG) | 0.188
CCGAATGCTTGGGTTCTAACCTGTTGCCT (site CCGCATGCTAG) | 0.0438
